Calls of active or inactive are those of the source.
Tests used:
cells = format: functional
[1] = biological target: T1, Rac GTPase-activating protein 1 (Homo sapiens, UniProt Q9H0H5); experiment: MgcRacGAP GTPase-activating activity inhibitors, confirmation, biochemical, ADP Hunter fluorescence, primary and confirmatory (AID 624330); format: functional
T1 sequence (Q9H0H5 whole entry): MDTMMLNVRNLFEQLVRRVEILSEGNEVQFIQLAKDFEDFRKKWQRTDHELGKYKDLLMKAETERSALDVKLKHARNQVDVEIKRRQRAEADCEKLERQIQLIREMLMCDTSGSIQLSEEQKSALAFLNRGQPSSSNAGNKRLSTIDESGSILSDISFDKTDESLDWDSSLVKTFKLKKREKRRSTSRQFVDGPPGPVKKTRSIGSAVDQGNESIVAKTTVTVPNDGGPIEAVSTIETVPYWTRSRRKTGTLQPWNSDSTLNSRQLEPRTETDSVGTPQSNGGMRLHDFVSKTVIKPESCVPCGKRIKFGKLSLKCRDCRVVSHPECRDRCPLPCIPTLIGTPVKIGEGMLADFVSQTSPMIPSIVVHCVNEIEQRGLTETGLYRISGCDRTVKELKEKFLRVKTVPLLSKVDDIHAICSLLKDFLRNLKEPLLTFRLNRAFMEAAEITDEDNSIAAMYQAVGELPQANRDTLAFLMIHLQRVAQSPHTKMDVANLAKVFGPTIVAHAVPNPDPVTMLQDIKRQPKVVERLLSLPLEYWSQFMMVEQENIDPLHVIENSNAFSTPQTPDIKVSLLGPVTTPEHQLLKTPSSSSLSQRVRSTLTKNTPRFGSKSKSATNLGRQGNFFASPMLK

H4 = experiment: Luminescence Cell-Based Dose Response HTS to Identify Activators of 5'UTR Stem-Loop Driven Prion Protein mRNA Translation in H4 Neuroglioblastoma Cells. [Related pubchem assays: 1829 (Project Summary), 1814 (Primary HTS)]; format: functional; settings: Homo sapiens
[2] = Luminescence Cell-Based Dose Confirmation HTS to Identify Activators of 5'UTR Stem-Loop Driven Alpha-Synuclein mRNA Translation in H4 Neuroglioblastoma Cells. [Related pubchem assays: 1829 (Project Summary), 1814 (Primary HTS)]; format: functional
[3] = Luminescence Cell-Based Dose Response HTS to Identify Activators of Luciferase Translation or Activity in H4 […] Cells. [Related pubchem assays: 1829 (Project Summary), 1814 (Primary HTS)]; format: functional
Genome polyprotein = Genome polyprotein (dengue virus type 2, UniProt P29990); experiment: Dengue-2 NS5 methyltransferase inhibitors, primary screen, biochemical, confirmation dose response (AID 588689); format: functional
[4] = biological target: T2, Zinc finger protein mex-5 (Caenorhabditis elegans, UniProt Q9XUB2); experiment: MEX-5/TCR-2 RNA interaction inhibitors, dose response, biochemical, C. elegans, fluorescence polarization (AID 1960)
T2 sequence (Q9XUB2 whole entry): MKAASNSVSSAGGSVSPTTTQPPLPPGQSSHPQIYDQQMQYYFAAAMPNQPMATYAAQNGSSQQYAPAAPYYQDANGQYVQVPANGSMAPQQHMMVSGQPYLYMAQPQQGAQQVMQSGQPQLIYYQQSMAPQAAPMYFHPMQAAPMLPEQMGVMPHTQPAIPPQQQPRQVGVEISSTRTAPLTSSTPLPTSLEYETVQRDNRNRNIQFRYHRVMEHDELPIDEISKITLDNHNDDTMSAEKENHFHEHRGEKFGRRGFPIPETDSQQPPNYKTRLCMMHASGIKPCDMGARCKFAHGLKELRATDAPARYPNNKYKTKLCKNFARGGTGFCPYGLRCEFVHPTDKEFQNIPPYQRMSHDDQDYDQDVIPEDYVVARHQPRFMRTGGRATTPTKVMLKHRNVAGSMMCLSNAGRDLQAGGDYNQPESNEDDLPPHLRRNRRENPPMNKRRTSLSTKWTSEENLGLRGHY

[5] = biological target: T3, RNA-binding protein pos-1 (Caenorhabditis elegans, UniProt G5EF15); experiment: inhibitors of POS-1/mex-3 RNA binding, dose response, biochemical, fluorescence polarization (AID 1964);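 also: purified POS-1 fused to maltose binding protein made in E. coli; potency of compounds blocking POS-1 binding to fluorescent RNA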
T3 sequence (G5EF15 whole entry): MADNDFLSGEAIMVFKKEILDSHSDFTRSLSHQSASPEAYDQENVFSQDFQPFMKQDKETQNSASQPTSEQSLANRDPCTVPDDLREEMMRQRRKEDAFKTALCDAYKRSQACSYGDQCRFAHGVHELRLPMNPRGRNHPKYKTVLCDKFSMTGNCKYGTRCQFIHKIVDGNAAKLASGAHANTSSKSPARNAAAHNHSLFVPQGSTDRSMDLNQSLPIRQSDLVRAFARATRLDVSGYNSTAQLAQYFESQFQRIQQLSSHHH

[6] = Shn3 3'UTR reporter inhibitors, dose response, cell-based, Clone20 osteoblasts, firefly luciferase, cherry-picked (AID 624132); format: functional;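 also: firefly luciferase luminescence from reporter carrying the Shn3 3'UTR in osteoblasts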
[7] = control 3'UTR Renilla luciferase suppression, dose response, counter-screen for Shn3 inhibitor project, cell-based, Clone20-Shn3RL, cherry-picked (AID 624133); format: functional
[8] = HepG2 cell cytotoxicity, dose response, cytotoxicity control for Shn3 inhibitor project, CellTiter-Glo, cherry-picked (AID 624134); format: functional, cell-based
Nonstructural protein 1 = Nonstructural protein 1 (Influenza A virus, UniProt Q194T2); format: functional, Influenza A virus (A/California/07/2009(H1N1))
[9] = inhibitors of intracellular T. cruzi replication, confirmation, NIH3T3 host cells, beta-gal luminescence (AID 2044); format: functional, cell-based;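 also: intracellular parasites grown in NIH/3T3 mouse fibroblasts as host cells; luminescent beta-galactosidase reporter signal from transgenic T. cruzi replicating inside host cells; inhibitors lower the luminescence signal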
[10] = cytotoxicity toward NIH3T3 fibroblasts, dose response, counter-screen, cell-based, ATP luminescence, mouse fibroblasts (AID 2010); format: functional;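 also: cells exposed to compound for about 90 hours before reading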
[11] = Luminescence Cell-Based Dose Confirmation HTS to Identify Inhibitors of Platelet Dense Granule Release. [Related pubchem assays: 1663 (Primary HTS), 1678 (Summary of Project)]; format: functional
[12] = biological target: Luciferin 4-monooxygenase (Photinus pyralis, UniProt P08659); experiment: firefly luciferase enzyme inhibitors, dose response, biochemical, luminescence (AID 1891)
P388 = experiment: cells; format: functional; settings: Mus musculus
P388/ADR = experiment: cells; format: functional; settings: Mus musculus
SN12K1 = experiment: cells; format: functional; settings: Homo sapiens
Fatty acid synthase = Fatty acid synthase (Homo sapiens, UniProt P49327); experiment: FAS thioesterase domain inhibitors, dose response, biochemical, kinetic fluorescence intensity (AID 624326); format: functional;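 also: rate of fluorescence rise from hydrolysis of a fluorogenic O-methyl fluorescein ester substrate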
Fatty acid synthase, sequence (P49327 whole entry, the tested form may be a part): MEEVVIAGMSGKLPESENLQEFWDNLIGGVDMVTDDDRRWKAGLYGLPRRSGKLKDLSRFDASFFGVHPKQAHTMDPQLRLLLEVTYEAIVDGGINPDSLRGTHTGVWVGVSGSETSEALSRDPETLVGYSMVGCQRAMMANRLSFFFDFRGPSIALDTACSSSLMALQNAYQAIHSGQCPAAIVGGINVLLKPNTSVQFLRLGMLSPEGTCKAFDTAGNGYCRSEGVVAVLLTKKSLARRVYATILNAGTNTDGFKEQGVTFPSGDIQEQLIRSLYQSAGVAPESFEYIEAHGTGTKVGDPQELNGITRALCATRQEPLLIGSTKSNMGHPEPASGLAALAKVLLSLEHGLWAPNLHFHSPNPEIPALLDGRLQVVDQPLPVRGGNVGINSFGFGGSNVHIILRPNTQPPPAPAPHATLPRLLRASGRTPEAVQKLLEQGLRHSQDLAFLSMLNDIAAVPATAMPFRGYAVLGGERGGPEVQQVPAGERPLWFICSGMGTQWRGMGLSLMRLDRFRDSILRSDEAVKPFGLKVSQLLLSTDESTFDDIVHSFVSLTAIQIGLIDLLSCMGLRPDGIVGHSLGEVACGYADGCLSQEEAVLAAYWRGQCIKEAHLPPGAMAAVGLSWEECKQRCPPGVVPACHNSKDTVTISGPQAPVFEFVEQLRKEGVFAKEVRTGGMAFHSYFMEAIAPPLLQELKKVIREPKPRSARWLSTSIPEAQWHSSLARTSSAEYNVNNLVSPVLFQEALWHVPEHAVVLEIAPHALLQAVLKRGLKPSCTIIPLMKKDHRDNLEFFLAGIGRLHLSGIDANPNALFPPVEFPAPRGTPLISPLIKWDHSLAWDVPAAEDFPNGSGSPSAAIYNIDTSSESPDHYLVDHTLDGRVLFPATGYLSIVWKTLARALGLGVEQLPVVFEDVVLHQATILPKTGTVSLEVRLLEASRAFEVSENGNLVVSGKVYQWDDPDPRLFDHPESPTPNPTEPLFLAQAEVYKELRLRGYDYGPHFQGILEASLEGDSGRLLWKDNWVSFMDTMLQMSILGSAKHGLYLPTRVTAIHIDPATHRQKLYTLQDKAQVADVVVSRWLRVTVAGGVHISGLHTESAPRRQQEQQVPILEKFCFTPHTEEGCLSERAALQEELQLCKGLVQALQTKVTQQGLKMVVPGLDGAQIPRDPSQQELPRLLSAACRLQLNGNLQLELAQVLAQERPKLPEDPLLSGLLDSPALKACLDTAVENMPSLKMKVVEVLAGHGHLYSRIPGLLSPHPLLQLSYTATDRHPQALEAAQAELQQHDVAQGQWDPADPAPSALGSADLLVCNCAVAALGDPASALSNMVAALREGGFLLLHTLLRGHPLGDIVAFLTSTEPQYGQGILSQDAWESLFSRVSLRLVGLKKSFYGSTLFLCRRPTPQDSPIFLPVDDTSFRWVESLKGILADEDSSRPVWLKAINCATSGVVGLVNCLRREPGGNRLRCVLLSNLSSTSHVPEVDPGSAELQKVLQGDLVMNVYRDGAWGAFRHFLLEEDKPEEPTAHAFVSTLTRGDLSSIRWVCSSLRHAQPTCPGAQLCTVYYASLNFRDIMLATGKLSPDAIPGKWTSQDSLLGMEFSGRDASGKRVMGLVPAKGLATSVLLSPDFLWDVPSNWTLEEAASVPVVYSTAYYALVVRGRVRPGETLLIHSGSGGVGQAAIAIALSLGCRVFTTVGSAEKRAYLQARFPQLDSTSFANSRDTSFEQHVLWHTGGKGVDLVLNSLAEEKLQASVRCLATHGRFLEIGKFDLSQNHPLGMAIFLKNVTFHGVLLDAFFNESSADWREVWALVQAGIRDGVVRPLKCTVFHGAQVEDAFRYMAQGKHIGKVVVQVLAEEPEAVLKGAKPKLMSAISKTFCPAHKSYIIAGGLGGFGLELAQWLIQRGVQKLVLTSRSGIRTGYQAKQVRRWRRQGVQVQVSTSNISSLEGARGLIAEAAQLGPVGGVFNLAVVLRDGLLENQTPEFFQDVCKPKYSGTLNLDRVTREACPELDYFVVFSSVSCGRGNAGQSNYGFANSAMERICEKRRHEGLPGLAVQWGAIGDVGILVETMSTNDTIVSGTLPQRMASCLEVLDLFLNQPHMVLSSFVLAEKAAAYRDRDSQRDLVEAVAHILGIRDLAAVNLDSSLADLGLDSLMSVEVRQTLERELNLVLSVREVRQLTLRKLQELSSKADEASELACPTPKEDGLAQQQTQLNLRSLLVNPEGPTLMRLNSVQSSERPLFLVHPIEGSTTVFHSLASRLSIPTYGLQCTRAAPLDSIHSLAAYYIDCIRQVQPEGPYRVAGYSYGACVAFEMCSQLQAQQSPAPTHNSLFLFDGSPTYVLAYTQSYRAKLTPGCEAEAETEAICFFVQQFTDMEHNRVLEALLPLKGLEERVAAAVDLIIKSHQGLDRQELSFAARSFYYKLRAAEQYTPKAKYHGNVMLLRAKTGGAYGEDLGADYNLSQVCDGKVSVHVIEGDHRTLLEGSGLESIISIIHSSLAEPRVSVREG

Genome polyprotein, sequence (P29990 2492-3391 limits assumed): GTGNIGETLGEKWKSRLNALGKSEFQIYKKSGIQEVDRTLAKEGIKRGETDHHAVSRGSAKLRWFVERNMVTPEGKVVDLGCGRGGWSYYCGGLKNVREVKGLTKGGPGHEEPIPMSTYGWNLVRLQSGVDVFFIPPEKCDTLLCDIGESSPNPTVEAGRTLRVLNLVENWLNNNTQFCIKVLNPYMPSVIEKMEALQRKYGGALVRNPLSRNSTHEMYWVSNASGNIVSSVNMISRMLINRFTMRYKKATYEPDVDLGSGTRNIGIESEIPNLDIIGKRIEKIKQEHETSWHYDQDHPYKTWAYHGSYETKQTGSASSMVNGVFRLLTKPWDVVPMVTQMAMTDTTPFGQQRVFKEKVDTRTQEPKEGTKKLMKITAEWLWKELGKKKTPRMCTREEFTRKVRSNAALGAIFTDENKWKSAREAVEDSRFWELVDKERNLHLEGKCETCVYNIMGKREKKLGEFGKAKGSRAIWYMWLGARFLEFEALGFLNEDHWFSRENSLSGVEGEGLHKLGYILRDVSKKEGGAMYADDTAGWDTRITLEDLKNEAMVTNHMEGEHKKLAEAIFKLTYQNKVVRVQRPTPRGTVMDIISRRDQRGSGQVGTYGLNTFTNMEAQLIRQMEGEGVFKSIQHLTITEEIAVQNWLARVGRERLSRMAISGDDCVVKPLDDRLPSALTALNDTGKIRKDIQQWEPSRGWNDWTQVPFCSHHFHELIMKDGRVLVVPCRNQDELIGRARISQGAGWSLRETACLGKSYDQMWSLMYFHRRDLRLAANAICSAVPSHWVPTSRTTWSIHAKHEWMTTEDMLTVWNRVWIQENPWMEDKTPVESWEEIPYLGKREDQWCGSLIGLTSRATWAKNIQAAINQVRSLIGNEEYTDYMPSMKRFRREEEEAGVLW
Nonstructural protein 1, sequence (Q194T2 whole entry): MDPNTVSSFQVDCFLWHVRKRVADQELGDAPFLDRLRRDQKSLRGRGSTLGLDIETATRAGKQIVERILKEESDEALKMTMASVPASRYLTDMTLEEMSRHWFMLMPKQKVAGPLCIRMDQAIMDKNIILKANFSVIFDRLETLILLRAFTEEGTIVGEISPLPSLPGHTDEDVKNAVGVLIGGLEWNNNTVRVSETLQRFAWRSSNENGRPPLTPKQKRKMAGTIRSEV
Luciferin 4-monooxygenase, sequence (P08659 whole entry): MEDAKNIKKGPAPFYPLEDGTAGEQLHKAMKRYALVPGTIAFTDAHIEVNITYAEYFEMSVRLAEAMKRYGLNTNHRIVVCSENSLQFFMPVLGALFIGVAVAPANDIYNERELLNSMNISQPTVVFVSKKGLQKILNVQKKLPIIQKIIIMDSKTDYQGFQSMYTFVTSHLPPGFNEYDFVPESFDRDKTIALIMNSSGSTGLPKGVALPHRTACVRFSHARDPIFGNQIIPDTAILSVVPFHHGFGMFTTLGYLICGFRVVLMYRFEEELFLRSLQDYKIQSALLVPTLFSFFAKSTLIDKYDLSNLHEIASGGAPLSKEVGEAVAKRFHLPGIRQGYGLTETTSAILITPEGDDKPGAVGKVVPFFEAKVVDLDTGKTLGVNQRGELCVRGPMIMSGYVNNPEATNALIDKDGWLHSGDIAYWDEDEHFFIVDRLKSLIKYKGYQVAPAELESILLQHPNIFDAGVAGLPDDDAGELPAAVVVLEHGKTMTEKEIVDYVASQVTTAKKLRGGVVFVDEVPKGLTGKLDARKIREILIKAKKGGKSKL

In the case of c1ccc(-c2ccccc2OCCCCn2ccnc2)cc1, the IC50 (cells) is reported as 18.1 µM (active) and the IC50 [1] is reported as 127 µM (active).
In the case of CCOC(=O)c1cc(C)n(CCc2ccccc2)c1C, the EC50 (H4) is reported as > 120 µM (not active), the EC50 [2] is reported as > 120 µM (not active) and the EC50 [3] is reported as 15.7 µM (active).
With CCc1cccc(NC(=O)Nc2cccs2)c1 the EC50 (H4) was > 120 µM (not active), the EC50 [2] was 14.6 µM (active) and the EC50 [3] was 2.48 µM (active).
For O=C(O)/C=C/C(=O)c1c(-c2ccccc2)[nH]c2ccccc12, the IC50 (Genome polyprotein) was > 100 µM (active).
For O=C1NC(=O)C(=Cc2cc(Cl)ccc2OCc2ccc(C(=O)O)cc2)C(=O)N1, the IC50 (Genome polyprotein) was 20.7 µM (active).
In the case of CC(=O)c1ccc2c(c1)C1C=CCC1C(c1ccncc1)N2 (stereo unspecified), the EC50 [4] is reported as 47.7 µM (active), the EC50 (H4) is reported as 25.5 µM (active) and the EC50 [2] is reported as 14.4 µM (active). For the same compound, the EC50 [5] was > 300 µM (not active) and the EC50 [3] was 9.61 µM (active).
In the case of COc1ccc(C(=O)C(C)OC(=O)c2cccc(S(=O)(=O)Nc3cc(Cl)c(OC)cc3OC)c2)cc1 (stereo unspecified), the AC50 [6] is reported as 5.54 µM (active), the AC50 [7] is reported as 28.6 µM (active) and the AC50 [8] is reported as > 70 µM (inactive).
In the case of CCCOC1CCCN(C(=O)c2cc(COc3cncc(Cl)c3)on2)C1 (stereo unspecified), the EC50 (H4) is reported as 59.7 µM (active), the EC50 [2] is reported as 3.46 µM (active) and the EC50 [3] is reported as 47.5 µM (active).
For O=C1ON=C(c2ccc([N+](=O)[O-])cc2)/C1=C/c1ccccc1O, the IC50 (Genome polyprotein) was 32.4 µM (active).
With O=C(Nc1ccccc1F)c1ccc2nc(N3C(=O)CCC3=O)sc2c1 the EC50 (H4) was 8.54 µM (active), the EC50 [2] was 29.8 µM (active) and the EC50 [3] was 32.5 µM (active).
For CCCCNC(=O)COC(=O)c1cc(Br)ccc1Cl, the IC50 (cells) was 9.24 µM (active).
In the case of Cc1ccc(S(=O)(=O)NCc2ccc3c(c2)cc(C)n3C)cc1, the IC50 (Nonstructural protein 1) is reported as 86.6 µM (active), the EC50 [9] is reported as 3.2 µM (active) and the EC50 [10] is reported as > 60 µM (not active).
In the case of CCN(CC)CCNC(=O)c1nn(-c2ccc(C)cc2)c(=O)c2c1c1ccccc1n2C, the EC50 (H4) is reported as 61.3 µM (active), the EC50 [2] is reported as 15 µM (active) and the EC50 [9] is reported as 0.157 µM (active). For the same compound, the EC50 [10] was > 30 µM (not active) and the EC50 [3] was > 120 µM (not active).
With COc1cc(O)c2c(=O)c(-c3ccc(O[C@@H]4O[C@H](CO)[C@@H](O)[C@H](O)[C@H]4O)cc3)coc2c1 the EC50 (H4) was 21.2 µM (active), the EC50 [2] was 0.25 µM (active) and the EC50 [3] was 38.6 µM (active).
With O=C(/C=C/c1ccccc1Cl)Nc1ccncc1 the EC50 [11] was 26.7 µM (active), the EC50 (H4) was 0.524 µM (active) and the EC50 [2] was 26.2 µM (active). For the same compound, the EC50 [12] was 20.6 µM (active) and the EC50 [3] was 56.2 µM (active).
In the case of Cc1cc(-c2sccc2Br)nc(-n2cccc2)n1, the EC50 (H4) is reported as 9.52 µM (active), the EC50 [2] is reported as > 120 µM (not active) and the EC50 [3] is reported as 13.3 µM (active).
With C=C1CC(COc2cc(=O)oc3ccccc23)(c2ccccc2)OC1=O (stereo unspecified) the AC50 [6] was 3.93 µM (active), the AC50 [7] was 7.58 µM (active) and the AC50 [8] was 13.7 µM (active).
In the case of CC(C)(C)OC(=O)NCCCCCNC(=O)c1[nH]cnc1C(=O)NCc1ccc(CNC(=O)OC(C)(C)C)cc1, the AC50 [6] is reported as 3.95 µM (active), the AC50 [7] is reported as 8.62 µM (active) and the AC50 [8] is reported as > 70 µM (inactive).
For CCN1CC2(CO)CCC(OC)C34C5CC6C(OC)CC(O)(C5C6OC)C(O)(C(OC)C23)C14 (stereo unspecified), the GI50 (P388) was > 174 µM (inactive), the GI50 (P388/ADR) was > 80.7 µM (inactive) and the GI50 (SN12K1) was > 375 µM (inactive).
With O=C(O)CCC(NC(=O)c1ccc(Nc2nc3ccc(C(F)(F)F)cc3nc2-c2ccccc2)cc1)C(=O)O (stereo unspecified) the GI50 (P388) was 35 µM (inactive), the GI50 (P388/ADR) was 71.1 µM (inactive) and the GI50 (SN12K1) was > 100 µM (inactive).
For Cn1c(-c2ccccc2)cc(-c2cccs2)c1-c1cccs1, the GI50 (P388) was 10.8 µM (inactive), the GI50 (P388/ADR) was 33.2 µM (inactive) and the GI50 (SN12K1) was 18.1 µM (inactive).
With C=C1C(=O)OC2CC3(C)OC3C3OC3C3=CC(OC3=O)C12 (stereo unspecified) the AC50 [6] was 1.45 µM (active), the AC50 [7] was 1.86 µM (active) and the AC50 [8] was 19.2 µM (active).
With Cn1cccc1/C=N/NC(=O)c1ccncc1 the IC50 (cells) was 0.75 µM (active).
In the case of O=CNc1cccc2c3c([nH]c12)CCCCCC3, the GI50 (P388) is reported as > 65.3 µM (inactive), the GI50 (P388/ADR) is reported as 73.1 µM (inactive) and the GI50 (SN12K1) is reported as > 100 µM (inactive).
In the case of CC1[C@@H]2CC=C3[C@H]4CCC5Cc6nc7c(nc6C[C@@]5(C)C4(O)CC(=O)[C@]32CO[C@]12OC(C)(C)CC2O)CC1CC[C@@H]2C3=C[C@H]4O[C@@]5(O[C@@](C)(CO)C[C@@H]5O)C(C)[C@@]4(O)[C@]3(C)[C@@H](O)CC2[C@]1(C)C7 (stereo partly specified), the GI50 (P388) is reported as 0.00036 µM (active) and the GI50 (P388/ADR) is reported as 0.00879 µM (active).
For CN(C)CCNCc1c2ccccc2c(CNCCN(C)C)c2ccccc12, the GI50 (P388) was 36.9 µM (inactive), the GI50 (P388/ADR) was > 100 µM (inactive) and the GI50 (SN12K1) was 25 µM (inactive).
In the case of O=C(N/N=C/c1ccccn1)c1cccc(S(=O)(=O)Nc2ccccc2Cl)c1, the IC50 (cells) is reported as 47.1 µM (active).
With O=C(N/N=C/c1cccc2nccnc12)c1ccncc1 the IC50 (cells) was 0.21 µM (active).
With Cc1cc(C(=O)N/N=C/c2cc([N+](=O)[O-])cc(C)c2O)[nH]n1 the IC50 (Nonstructural protein 1) was 8.76 µM (active) and the IC50 (Fatty acid synthase) was 11.8 µM (active).
For O=C(N/N=C/C=C/c1ccccc1[N+](=O)[O-])c1ccncc1, the IC50 (cells) was 0.4 µM (active).
With Nc1nc(=O)n(C2OC(CO)C(O)C2O)cc1F (stereo unspecified) the GI50 (P388) was < 0.0107 µM (active), the GI50 (P388/ADR) was 0.016 µM (active) and the GI50 (SN12K1) was 0.0705 µM (active).
In the case of O[C@H]1[C@H](O)[C@@H](O)CN2CC[C@H](O)[C@H]12 [CASTANOSPERMINE], the GI50 (P388) is reported as > 100 µM (inactive), the GI50 (P388/ADR) is reported as > 91 µM (inactive) and the GI50 (SN12K1) is reported as > 100 µM (inactive).
For CN(C)/N=N/c1[nH]cnc1C(N)=O [DACARBAZINE], the GI50 (P388) was 19.3 µM (inactive), the GI50 (P388/ADR) was 40.3 µM (inactive) and the GI50 (SN12K1) was 28.6 µM (inactive).

— ChEMBL document CHEMBL1201862, “PubChem BioAssay data set” (2004)
